From US12540171B2, “Compositions and methods for treating ocular disease” (Asclepix Therapeutics, Inc., priority 2019, dated 2026)
No end group written: not given here.

Key:
[1] = Drug levels in the retina after intravitreal injection, LC/MS/MS; assay type: in vivo, Dutch-Belted rabbits; details: 225, 271, and 315 days after a single injection
Procedure: The rabbits were then sacrificed at various time points, and the various ocular tissues were separated. The drug levels in the retina were measured by Liquid chromatography-mass spectrometry (LC/MS/MS). The drug levels were plotted as ng/g. The Kd for binding of AXT107 to its integrin targets is 1-2 nM.

[2] = Gel formation and persistence in the vitreous after intravitreal injection
Procedure: In FIG. 3, AXT107 was injected into the vitreous of Dutch-Belted rabbits. […] The retina with the optic nerve is visible in the back of the eye.
In FIG. 7, AXT107 was injected into the vitreous of Dutch-Belted rabbits in a PK toxicology study.

With LRRFSTAPFAFIDINDVINF [AXT107] the “AXT107 level in the retina” value [1] was “significant levels”, the “gels in the vitreous at necropsy, PK toxicology study” value ([2]; Dutch-Belted rabbits, 6 Months after administration, all doses) was “visible in the vitreous at all doses” and the “effect of gel on the visual axis” value ([2]; rabbit eye, after intravitreal injection) was “does not block the visual axis”. The “time the gel stays in place without breaking apart or migrating” value ([2]; rabbit eye, doses of 100 μg, 250 μg, 500 μg, and 1000 μg) was 15 months and the “release of peptide from gel” value ([2]; rabbit vitreous) was “released the peptide in a sustained manner”.
